Test results from PMC2011259, “Pentamethylmelamine (PMM): Phase I clinical and pharmacokinetic studies” (British Journal of Cancer, 1983).
Like-named read-outs stand apart in the source and are kept apart here.

Columns and labels:
[1] = oral HMM 120-300 mg m-2, n = 9 (9/11 patients), mean + SEM; ref D'Incalci et al. (1978); cited from earlier work
[2] = Pharmacokinetic studies: plasma levels of PMM, TMM and TRIMM by gas liquid chromatography; type: in vivo, man; conditions: for Quantity of metabolite in plasma / Detection as PMM metabolite in plasma: after i.v. PMM; for Detection as PMM metabolite in plasma: patients studied; for half-life: intravenous; for Plasma concentration relative to parent drug: 2 h after the end of the infusion
Source text: (§1) Br. J. Cancer (1983), 47, 027-033 Pentamethylmelamine (PMM): Phase I clinical and pharmacokinetic studies J.R.F. Muindi*, D.R. Newellt, I.E. Smith* & K.R. Harrapt *Division of Medicine, Institute of Cancer Research and Royal Marsden Hospital, and the tDepartment of Biochemical Pharmacology, Institute of Cancer Research, Sutton, Surrey. […] PMM has been administered as an intravenous infusion to 17 patients in a Phase I clinical trial. […] In the present study the results of the Phase I clinical evaluation of PMM at the Royal Marsden Hospital are reported. In addition to the clinical assessment of patients, pharmacokinetic studies were also performed. […] (Broggini et al., 1981; Morimoto et al., 1980; Ames et al., 1979; Casper et al., 1981; Idhe et al., 1981; Benvenuto et al., 1981; Rutty et al., 1982). […] The mechanism of action of N-methylolmelamines is, however, still uncertain. To ascertain the rate and extent of PMM metabolism in man, plasma levels of the parent drug and the first two products of oxidative N- demethylation i.e. N2,N2,N4,N6-tetramethyl- melamine (TMM) and N2,N4,N6-trimethylmelamine (TRIMM) were measured (Figure 2). […] Materials and methods Patient selection The patients entered in the PMM Phase I clinical study were all under the care of the Royal Marsden Hospital. […] Additional criteria required for eligibility to enter into the study included: WBC and platelet count > 3000 uM I-' and > 100,000 pM 11 respectively; blood urea and serum creatinine < 8 mM ,M I1- and < 106 pM 1 respectively. None of the patients had received cancer chemotherapy or radiotherapy during the 3-week period preceding their entry into the study. […] The treatment protocol was approved by the Ethical Committee of the Royal Marsden Hospital and informed consent was obtained from all patients prior to entry into the study. […] It was supplied by Prof. W.C.J. Ross of the Chester Beatty Research Institute, London, as a white crystalline powder. PMM (2mg ml-') was infused intravenously as a 2% ethanol 5% dextrose solution after micropore (0.22 pm) filtration. All formulated PMM infusions were used within 24h of preparation, as a sterility precaution. PMM was initially given at a dose of […] and the dose escalated to 1300mgm-2 according to a modified Fibonacci scheme (Table II). At higher PMM doses, requiring large infusion volumes, the infusion time was extended from 1 to 4 h. No dose escalation was TRIMM CH3 Nc"N H 11 H Ii N N H CH3 HCHO 1. carried out in the same patient.

[3] = set-up: method as in Ames et al. (1979); conditions: rabbits, independent of the route (i.v. and oral); ref Ames et al. (1979); cited from earlier work
[4] = set-up: method as in Rutty et al., 1982; conditions: rats; ref Rutty et al., 1982; cited from earlier work
[5] = set-up: method as in Rutty et al., 1982; conditions: mice; ref Rutty et al., 1982; cited from earlier work
[6] = set-up: method as in Cumber & Ross, 1977; conditions: compared with N2,N4,N6-trimethyl-N2,N4,N6-trimethylolmelamine; ref Cumber & Ross, 1977; cited from earlier work
patients = conditions: cited from earlier work
malignant tumours = experiment: Tumour response in the Phase I trial; type: in vivo, man
Source text: Br. J. Cancer (1983), 47, 027-033 Pentamethylmelamine (PMM): Phase I clinical and pharmacokinetic studies J.R.F. Muindi*, D.R. Newellt, I.E. Smith* & K.R. Harrapt *Division of Medicine, Institute of Cancer Research and Royal Marsden Hospital, and the tDepartment of Biochemical Pharmacology, Institute of Cancer Research, Sutton, Surrey. […] PMM has been administered as an intravenous infusion to 17 patients in a Phase I clinical trial. […] In the present study the results of the Phase I clinical evaluation of PMM at the Royal Marsden Hospital are reported. In addition to the clinical assessment of patients, pharmacokinetic studies were also performed. […] (Broggini et al., 1981; Morimoto et al., 1980; Ames et al., 1979; Casper et al., 1981; Idhe et al., 1981; Benvenuto et al., 1981; Rutty et al., 1982). […] The mechanism of action of N-methylolmelamines is, however, still uncertain. To ascertain the rate and extent of PMM metabolism in man, plasma levels of the parent drug and the first two products of oxidative N- demethylation i.e. N2,N2,N4,N6-tetramethyl- melamine (TMM) and N2,N4,N6-trimethylmelamine (TRIMM) were measured (Figure 2). […] Materials and methods Patient selection The patients entered in the PMM Phase I clinical study were all under the care of the Royal Marsden Hospital. […]

[7] = set-up: method as in Rutty et al., 1982; conditions: patients of this trial, not detectable; ref Rutty et al., 1982; cited from earlier work
[8] = tested on: patients with malignant tumours; experiment: Phase I clinical evaluation of toxicity of PMM given as intravenous infusion; type: in vivo, man; set-up: key to Nausea/vomiting Intensity: Mild: Vomiting once or twice during the infusion and requiring no anti- emetics was classified as mild; Moderate: vomiting that persisted up to 6 h after infusion and requiring a maximum administration of two courses of anti- emetics was regarded as moderate; Severe: Vomiting was classified as severe if it continued up to 24 h after PMM infusion and/or could only be controlled partially by repeated doses of anti-emetics; conditions: for Nausea/vomiting Frequency: per courses
Source text: as §1

[9] = tested on: experimental tumour test systems; set-up: method as in earlier work; conditions: a number of experimental tumour test systems, ref Cumber & Ross, 1977, Connors et al., Goldin et al., 1981; cited from earlier work
[10] = patient eight, PMM dose 300 mg m-2 i.v., hepatic function abnormal
[11] = patient five, PMM dose 200 mg m-2 i.v., hepatic function abnormal
[12] = patient four, PMM dose 200 mg m-2 i.v., hepatic function normal
[13] = patient one, PMM dose 300 mg m-2 i.v., hepatic function normal
[14] = patient seven, PMM dose 500 mg m-2 i.v., hepatic function normal
[15] = patient six, PMM dose 100 mg m-2 i.v., hepatic function normal
[16] = patient three, PMM dose 500 mg m-2 i.v., hepatic function abnormal
[17] = patient two, PMM dose 100 mg m-2 i.v., hepatic function normal
[18] = patients with normal liver function

Structure (SMILES): CN(C)c1nc(N(C)C)nc(N(C)C)n1 [HMM, hexamethylmelamine]
- HMM AUC 0-12h [1]: 763 +163 iMxmin

Structure (SMILES): CN(C)c1nc(N)nc(N(C)C)n1 [N2,N2,N4,N4-tetramethylmelamine]
- Quantity of metabolite in plasma [2]: minor quantities

Structure (SMILES): CNc1nc(N)nc(N(C)C)n1 [N2,N2,N4-trimethylmelamine]
- Quantity of metabolite in plasma [2]: minor quantities

Structure (SMILES): CNc1nc(N)nc(NC)n1 [N2,N4-dimethylmelamine]
- Detection as PMM metabolite in plasma [2]: observed

Structure (SMILES): CNc1nc(N(C)C)nc(N(C)C)n1 [PMM, Pentamethylmelamine]
- Urinary excretion of drug-derived material [3]: 75-85 % dose admin.
- PMM metabolites capable of releasing formaldehyde in plasma [4]: 211 yM
- PMM metabolites capable of releasing formaldehyde in plasma [5]: 563 to 773 µM
- Correlation (r) of plasma levels at the end of the infusion with dose ([2]; 1 h infusion, 100-300 mg m-2, P = 0.005): 0.94
- half-life ([2]; human, plasma, 100 mg m-2, patient six, 100 mg m-2, hepatic function normal, value + s.e., read-out: PMM plasma t1/2 (overall elimination phase)): 0.902 h
- half-life ([2]; human, plasma, 200 mg m-2, patient five, 200 mg m-2, hepatic function abnormal, value + s.e., read-out: PMM plasma t1/2 (overall elimination phase)): 2.25 h
- half-life ([2]; human, plasma, 300 mg m-2, patient eight, 300 mg m-2, hepatic function abnormal, value + s.e., read-out: PMM plasma t1/2 (overall elimination phase)): 2.54 h
- half-life ([2]; human, plasma, 300 mg m-2, patient one, 300 mg m-2, hepatic function normal, value + s.e., read-out: PMM plasma t1/2 (overall elimination phase)): 1.21 h
- half-life ([2]; human, plasma, 500 mg m-2, patient seven, 500 mg m-2, hepatic function normal, value + s.e., read-out: PMM plasma t1/2 (overall elimination phase)): 1.14 h
- half-life ([2]; human, plasma, 500 mg m-2, patient three, 500 mg m-2, hepatic function abnormal, value + s.e., read-out: PMM plasma t1/2 (overall elimination phase)): 2.12 h
- half-life ([2]; human, plasma, patients with hepatic disease and abnormal liver function tests, mean + SEM, n = 3, P = 0.002 vs normal, read-out: PMM t1/2, group mean): 2.3 h
- half-life ([2]; human, plasma, patients with normal liver function, mean + SEM, n = 3, read-out: PMM t1/2, group mean): 1.08 h
- AUC(0-t) ([2]; human, plasma, iv, i.v. PMM 100-300 mg m-2, n = 6, mean + SEM, read-out: PMM AUC 0-12h (converted)): 72.3 µM·h
- Area under the plasma conc. v. time curve [2, 10]: 6019 IM x min
- Area under the plasma conc. v. time curve [2, 11]: 7175 IM x min
- PMM pharmacokinetics in the disposition phase (order) ([2]; patient four, 200 mg m-2, hepatic function normal): not first-order
- Area under the plasma conc. v. time curve [2, 12]: 1694 IM x min
- Area under the plasma conc. v. time curve [2, 13]: 6232 IM x min
- Area under the plasma conc. v. time curve [2, 14]: 3940 IM x min
- Area under the plasma conc. v. time curve [2, 15]: 734 IM x min
- Area under the plasma conc. v. time curve [2, 16]: 7179 IM x min
- PMM pharmacokinetics in the disposition phase (order) ([2]; patient two, 100 mg m-2, hepatic function normal): not first-order
- Area under the plasma conc. v. time curve [2, 17]: 317 IM x min
- Chemical stability [6]: greater chemical stability
- Haematological toxicity (patients; 1.2 g/m2/day x 10, ref Goldberg et al. (1980)): reproducibly induced haematological toxicity
- Partial response among all patients who have received PMM (patients; of 173 patients, ref Casper et al., 1981): 1
- Minor responses among all patients who have received PMM (patients; of 173 patients, ref Van Echo et al., 1980, Ajani et al., 1982 and the present study): 7
- Minor response (malignant tumours; 500 mg m-2, patient with squamous cell carcinoma of bronchus): One minor response
- Complete or partial responses (malignant tumours; 17 patients, 100-1300 mg m-2): No complete or partial responses
- PMM metabolites capable of releasing formaldehyde in plasma [7]: < 50 µM
- Nausea/vomiting Intensity ([8]; 100 mg m-2 i.v. infusion): Mild
- Nausea/vomiting Frequency ([8]; 100 mg m-2 i.v. infusion, 3 patients): 0/7
- Nausea/vomiting Frequency ([8]; 200 mg m-2 i.v. infusion, 3 patients): 1/7
- Nausea/vomiting Intensity ([8]; 300 mg m-2 i.v. infusion): Moderate (vomiting that persisted up to 6 h after infusion and requiring a maximum administration of two courses of anti- emetics was regarded as moderate)
- Nausea/vomiting Frequency ([8]; 300 mg m-2 i.v. infusion, 3 patients): 2/5
- Patients with nausea and vomiting ([8]; 500 mg m-2 and above): all patients
- Nausea/vomiting Frequency ([8]; 500 mg m-2 i.v. infusion, 3 patients): 8/8
- Nausea/vomiting Intensity ([8]; 800 mg m-2 i.v. infusion): Severe (Vomiting was classified as severe if it continued up to 24 h after PMM infusion and/or could only be controlled partially by repeated doses of anti-emetics)
- Nausea/vomiting Frequency ([8]; 800 mg m-2 i.v. infusion, 3 patients): 7/7
- Duration of nausea and vomiting ([8]; 1300 mg m-2 i.v. infusion): > 24 h
- Nausea/vomiting Frequency ([8]; 1300 mg m-2 i.v. infusion, 2 patients): 4/4
- Severity of nausea and vomiting ([8]; 1300 mg m-2 i.v. infusion, poorly controlled by anti-emetics): severe
- Haematological toxicity ([8]; 100-1300 mg m-2 i.v. infusion): not observed
- Hepatic toxicity ([8]; 100-1300 mg m-2 i.v. infusion): not observed
- Renal toxicity ([8]; 100-1300 mg m-2 i.v. infusion): not observed
- Acute neurological side effects ([8]; doses below 500 mg m-2, not assessable at higher doses because of anti-emetics): no neurological side effects were observed
- Dose-limiting toxicities ([8]; i.v. infusion 100-1300 mg m-2, 3 weekly): nausea and vomiting
- Pruritic erythematous maculopapular skin rashes ([8]; one patient at 200 mg m-2 (2nd course), one at 1300 mg m-2, other medications possibly responsible): Two patients
- Activity relative to HMM [9]: equivalent activity

Structure (SMILES): CNc1nc(NC)nc(N(C)C)n1 [TMM, N2,N2,N4,N6-tetramethylmelamine]
- Detection as PMM metabolite in plasma [2]: detected
- Area under the plasma conc. v. time curve [2, 10]: 2121 IM x min
- Area under the plasma conc. v. time curve [2, 11]: 1804 IM x min
- Area under the plasma conc. v. time curve [2, 12]: 397 IM x min
- Area under the plasma conc. v. time curve [2, 13]: 3697 IM x min
- Area under the plasma conc. v. time curve [2, 14]: 2693 IM x min
- Area under the plasma conc. v. time curve [2, 15]: 204 IM x min
- Area under the plasma conc. v. time curve [2, 16]: 6206 IM x min
- Area under the plasma conc. v. time curve [2, 17]: 151 IM x min
- Plasma concentration relative to parent drug [2, 18]: greater concentrations than the parent drug

Structure (SMILES): CNc1nc(NC)nc(NC)n1 [TRIMM, N2,N4,N6-trimethylmelamine]
- Detection as PMM metabolite in plasma [2]: detected
- Area under the plasma conc. v. time curve [2, 10]: 627 IM x min
- Area under the plasma conc. v. time curve [2, 11]: 1438 IM x min
- Area under the plasma conc. v. time curve [2, 12]: 1070 IM x min
- Area under the plasma conc. v. time curve [2, 13]: 4091 IM x min
- Area under the plasma conc. v. time curve [2, 14]: 3710 IM x min
- Area under the plasma conc. v. time curve [2, 15]: 573 IM x min
- Area under the plasma conc. v. time curve [2, 16]: 7995 IM x min
- Area under the plasma conc. v. time curve [2, 17]: 189 IM x min
- Plasma concentration relative to parent drug [2, 18]: greater concentrations than the parent drug
